Results taken from the supplement of paper PMC10307832.

How the values were obtained:
Assay in all cases: relative viability (nuclei count vs DMSO), 5 days (fraction); higher = more cells survive
[1] = compound: CC(=O)Nc1cccc(-n2c(=O)n(C3CC3)c(=O)c3c(Nc4ccc(I)cc4F)n(C)c(=O)c(C)c32)c1 [Trametinib] + N=C(N)NC(=N)NCCc1ccccc1 [Phenformin] (partner 250 µM)
Procedure, shortened: (§1)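 Cells from lung cancer lines were seeded into 1536-well plates and, one day later, dosed by pin tool. Treatments were either a single drug or a fixed dose of an anchor drug with five library-drug doses (not always all listed) in √10 steps. After 5 days, nuclei were stained in a one-step fixation (final 0.05% Triton X-100, 1% formaldehyde, 1 ug/ml Hoechst) and counted on 4× images, and relative viability is the treated-to-vehicle nuclei ratio, as the median of duplicate plates.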

[2] = compound: CC(=O)Nc1cccc(-n2c(=O)n(C3CC3)c(=O)c3c(Nc4ccc(I)cc4F)n(C)c(=O)c(C)c32)c1 [Trametinib] + NC(=O)Nc1cc(-c2cccc(F)c2)sc1C(=O)N[C@H]1CCCNC1 [AZD7762] (partner 0.2 µM)
Procedure, shortened: as §1

[3] = compound: CN1C=C(C2=CC=CC=C21)/C=C\3/C4=C(C=CC=N4)NC3=O + CS(=O)(=O)CCNCc1ccc(-c2ccc3ncnc(Nc4ccc(OCc5cccc(F)c5)c(Cl)c4)c3c2)o1 [Lapatinib] (partner 2 µM)
Procedure, shortened: as §1

[4] = compound: CN1C=C(C2=CC=CC=C21)/C=C\3/C4=C(C=CC=N4)NC3=O + Nc1nc2[nH]cc(CCc3ccc(C(=O)N[C@@H](CCC(=O)O)C(=O)O)cc3)c2c(=O)[nH]1 [Pemetrexed] (partner 0.2 µM)
Procedure, shortened: as §1

| Cell Line | relative viability ([1]; first compound 0.0025 µM) | relative viability ([1]; first compound 0.007906 µM) | relative viability ([1]; first compound 0.025 µM) | relative viability ([1]; first compound 0.07906 µM) | relative viability ([1]; first compound 0.25 µM) | relative viability ([2]; first compound 0.0025 µM) | relative viability ([2]; first compound 0.007906 µM) | relative viability ([2]; first compound 0.025 µM) | relative viability ([2]; first compound 0.07906 µM) | relative viability ([2]; first compound 0.25 µM) | relative viability ([3]; first compound 0.02 µM) | relative viability ([3]; first compound 0.06325 µM) | relative viability ([3]; first compound 0.2 µM) | relative viability ([3]; first compound 0.6325 µM) | relative viability ([3]; first compound 2 µM) | relative viability ([4]; first compound 0.02 µM) | relative viability ([4]; first compound 0.06325 µM) | relative viability ([4]; first compound 0.2 µM) | relative viability ([4]; first compound 0.6325 µM) | relative viability ([4]; first compound 2 µM) |
| --- | --- | --- | --- | --- | --- | --- | --- | --- | --- | --- | --- | --- | --- | --- | --- | --- | --- | --- | --- | --- |
| NCI-H1755 | 0.593 | 0.587 | 0.608 | 0.594 | 0.512 | 0.457 | 0.405 | 0.428 | 0.426 | 0.352 | 0.966 | 0.918 | 0.903 | 0.959 | 0.958 | 0.351 | 0.365 | 0.427 | 0.423 | 0.373 |
| RERF-LC-KJ | 0.371 | 0.391 | 0.382 | 0.371 | 0.321 | 0.853 | 0.909 | 0.674 | 0.807 | 0.814 | 0.984 | 0.813 | 0.821 | 0.7 | 0.752 | 0.436 | 0.482 | 0.493 | 0.475 | 0.471 |
| NCI-H647 | 0.554 | 0.561 | 0.507 | 0.333 | 0.148 | 0.543 | 0.3 | 0.262 | 0.174 | 0.165 | 1.06 | 0.995 | 0.679 | 0.949 | 1.27 | 0.122 | 0.173 | 0.153 | 0.167 | 0.175 |
| BEN | 0.264 | 0.258 | 0.247 | 0.278 | 0.275 | 0.703 | 0.652 | 0.412 | 0.525 | 0.635 | 0.685 | 0.718 | 0.559 | 0.585 | 0.785 | 0.715 | 0.847 | 0.613 | 0.731 | 0.734 |
| 201T | 0.397 | 0.412 | 0.44 | 0.437 | 0.423 | 0.632 | 0.607 | 0.473 | 0.592 | 0.557 | 0.993 | 1.05 | 1.04 | 1.06 | 1.04 | 0.31 | 0.317 | 0.365 | 0.342 | 0.358 |
| LC-2-ad | 0.625 | 0.543 | 0.5 | 0.427 | 0.338 | 0.732 | 0.584 | 0.518 | 0.403 | 0.406 | 0.834 | 0.935 | 0.89 | 1.05 | 1 | 0.287 | 0.255 | 0.26 | 0.271 | 0.285 |
| LCLC-97TM1 | 0.415 | 0.448 | 0.383 | 0.301 | 0.288 | 0.352 | 0.306 | 0.137 | 0.161 | 0.123 | 0.696 |  |  | 0.882 | 0.948 |  | 0.177 | 0.18 | 0.21 | 0.186 |
| NCI-H1915 | 0.38 | 0.306 | 0.249 | 0.304 | 0.141 | 0.702 | 0.715 | 0.405 | 0.365 | 0.218 | 0.921 | 0.98 | 0.898 | 1.09 | 1.05 | 0.463 | 0.41 | 0.579 | 0.487 | 0.504 |
| NCI-H3122 | 0.381 | 0.296 | 0.282 | 0.243 | 0.233 | 0.947 | 0.642 | 0.292 | 0.361 | 0.308 | 0.928 | 0.934 | 0.952 | 1.06 | 1.02 | 0.185 | 0.196 | 0.203 | 0.194 | 0.267 |
| NCI-H1993 | 0.538 | 0.536 | 0.558 | 0.554 | 0.56 | 0.694 | 0.716 | 0.395 | 0.504 | 0.472 | 0.694 | 0.497 | 0.83 | 0.788 | 0.909 | 0.564 | 0.515 | 0.641 | 0.457 | 0.534 |
| NCI-H2405 | 0.326 | 0.316 | 0.28 | 0.202 | 0.251 | 0.566 | 0.616 | 0.425 |  | 0.401 | 1.03 | 1.02 | 0.749 | 1.06 | 1.03 | 1 | 0.955 | 0.828 | 1.09 | 1.01 |
